In data set [1] the test system is Alternaria alternata. Nature of the data set: Alternaria alternata in vitro cell test. The format is cell-based. As to conditions: 120 h, 20 ppm of active ingredient, liquid culture, 5 days incubation, read-out: efficacy (inhibition of fungal growth). On the procedure: (§1) • Solvent: […] Fungicides were solubilized in DMSO and the solution used to prepare the required range of concentrations. The final concentration of DMSO used in the assay was ≤1%. A spore suspension of Alternaria alternata was prepared and diluted to the desired spore density. Fungicides were evaluated for their ability to inhibit spore germination and mycelium growth in liquid culture assay. The compounds were added in the desired concentration to the culture medium with spores. After 5 days incubation, fungi-toxicity of compounds was determined by spectrometric measurement of mycelium growth. Inhibition of fungal growth was determined by comparing the absorbance values in wells containing the fungicides with the absorbance in control wells without fungicides.

Data set [2] concerns Fusarium culmorum. Nature of the data set: Fusarium culmorum in vitro cell test. The format is cell-based. To be noted: 96 h, 20 ppm of active ingredient, liquid culture, 4 days incubation, read-out: efficacy (inhibition of fungal growth). On the procedure:
• Solvent: DMSO • Culture medium: 14.6 g anhydrous D-glucose (VWR), 7.1 g Mycological Peptone (Oxoid), 1.4 g granulated Yeast Extract (Merck), QSP 1 liter • Inoculum: spore suspension
Fungicides were solubilized in DMSO and the solution used to prepare the required range of concentrations. The final concentration of DMSO used in the assay was ≤1%.
A spore suspension of Fusarium culmorum was prepared and diluted to the desired spore density.
Fungicides were evaluated for their ability to inhibit spore germination and mycelium growth in liquid culture assay. The compounds were added in the desired concentration to the culture medium with spores. After 4 days incubation, fungi-toxicity of compounds was determined by spectrometric measurement of mycelium growth. Inhibition of fungal growth was determined by comparing the absorbance values in wells containing the fungicides with the absorbance in control wells without fungicides.

Data set [3] has as its system Septoria tritici. Description: Septoria tritici in vitro cell test. The format is cell-based. To be noted: Zymoseptoria tritici, 168 h; 20 ppm of active ingredient; liquid culture, 7 days incubation; read-out: efficacy (inhibition of fungal growth). As to the method:
• Solvent: DMSO • Culture medium: 1 g KH2PO4 (VWR), 1 g K2HPO4 (VWR), 0.5 g Urea (VWR), 3 g KNO3 (Prolabo), 10 g saccharose (VWR), 0.5 g MgSO4, 7H2O (Sigma), 0.07 g CaCl2, 2H2O (Prolabo), 0.2 mg MnSO4, H2O (Sigma), 0.6 mg CuSO4, 5H2O (Sigma), 7.9 mg ZnSO4, 7H2O (Sigma), 0.1 mg H3BO3 (Merck), 0.14 mg NaMoO4, 2H2O (Sigma), 2 mg thiamine (Sigma), 0.1 mg biotine (VWR), 4 mg FeSO4, 7H2O (Sigma), QSP 1 liter • Inoculum: spore suspension Fungicides were solubilized in DMSO and the solution used to prepare the required range of concentrations. The final concentration of DMSO used in the assay was 1%. A spore suspension of Septoria tritici was prepared and diluted to the desired spore density. Fungicides were evaluated for their ability to inhibit spore germination and mycelium growth in liquid culture assay. The compounds were added in the desired concentration to the culture medium with spores. […] Inhibition of fungal growth was determined by comparing the absorbance values in wells containing the fungicides with the absorbance in control wells without fungicides.

Data set [4] relates to Colletotrichum lindemuthianum. Nature of the data set: Colletotrichum lindemuthianum in vitro cell test. The format is cell-based. To be noted: 144 h, 20 ppm of active ingredient, liquid culture, 6 days incubation, read-out: efficacy (inhibition of fungal growth). On the procedure: as §1, with “1%.” for “≤1%.”, “Colletotrichum lindemuthianum” for “Alternaria alternata”, “6” for “5”

Data set [5] concerns Pyricularia oryzae. Nature of the data set: microbe, parasite or virus in culture. The format is cell-based. To be noted: 120 h, read-out: efficacy (inhibition of fungal growth).
Data set [6] can be described thus: Measurement of Log P values by HPLC on reversed phase columns (EEC directive 79/831 Annex V.A8). The format is physicochemical. As to conditions: method [a]: LC-UV, acidic range, 0.1% formic acid in water and acetonitrile as eluent. As to the method: Measurement of Log P values as provided herein was performed according to EEC directive 79/831 Annex V.A8 by HPLC (High Performance Liquid Chromatography) on reversed phase columns with the following methods: • ^[a] Log P value is determined by measurement of LC-UV, in an acidic range, with 0.1% formic acid in water and acetonitrile as eluent (linear gradient from 10% acetonitrile to 95% acetonitrile). • ^[b] Log P value is determined by measurement of LC-UV, in a neutral range, with 0.001 molar ammonium acetate solution in water and acetonitrile as eluent (linear gradient from 10% acetonitrile to 95% acetonitrile). • ^[c] Log P value is determined by measurement of LC-UV, in an acidic range, with 0.1% phosphoric acid and acetonitrile as eluent (linear gradient from 10% acetonitrile to 95% acetonitrile).
If more than one Log P value is available within the same method, all the values are given and separated by “+”. […]

Inhibition and chromatographic logP data for 8 compounds are collected here from patent US12673942B2, “Azabicyclyl-substituted heterocycles as fungicides” (Bayer Aktiengesellschaft, priority 2020, dated 2026).

Bounds are passed on as bounds.

Usually inhibition stands for the share of the control response that was lost under treatment. A word on the chromatographic logP: it is lipophilicity estimated from chromatographic retention. A lower chromatographic logP goes with a more hydrophilic compound. Turning to `Cc1ccc(C[C@@H]2CON=C(c3c(Oc4cccc(Br)c4F)cnc4ccccc34)N2)c(C)c1` (racemic) [Compound I-019], the inhibition at 20 ppm in data set [1], in data set [2], in data set [3], in data set [4] and in data set [5] was at least 70% in each case. In data set [6], this compound had a chromatographic logP of 4.33.
On to `C#Cc1cccc(Oc2cnc3ccccc3c2C2=NOC[C@@H](Cc3ccc(C)cc3C)N2)c1` (racemic) [Compound I-016], for which the inhibition at 20 ppm in data set [1], in data set [2], in data set [3], in data set [4] and in data set [5] was at least 70% each time. This compound also gave a chromatographic logP in data set [6] of 4.05.
Take `FC(F)(F)c1cccc(Oc2nnc3ccccc3c2C2=NOC[C@@H](Cc3ccc(Br)cc3Cl)N2)c1` (racemic) [Compound I-007]: the inhibition at 20 ppm in data set [1], in data set [2], in data set [3], in data set [4] and in data set [5] was at least 70% in each case. The compound also gave a chromatographic logP in data set [6] of 4.44.
With `Cc1ccc(C[C@@H]2CON=C(c3c(Oc4cccc(C5CC5)c4F)cnc4ccccc34)N2)c(C)c1` (racemic) [Compound I-017], the inhibition at 20 ppm in data set [1], in data set [2], in data set [3], in data set [4] and in data set [5] was at least 70% throughout. Besides, the chromatographic logP in data set [6] was 4.51.
As for `Cc1ccc(CC2CON=C(c3c(Oc4cccc(C5CC5)c4F)nnc4ccccc34)N2)c(C)c1` (racemic) [Compound I-006, 3-(3-cyclopropyl-2-fluorophenoxy)-4-[(5RS)-5-(2,4-dimethylbenzyl)-5,6-dihydro-4H-1,2,4-oxadiazin-3-yl]cinnoline], the inhibition at 20 ppm in data set [1], in data set [2], in data set [3], in data set [4] and in data set [5] was at least 70% each time. In data set [6], this compound came in with a chromatographic logP of 4.37.
Take `C=Cc1cccc(Oc2cnc3ccccc3c2C2=NOC[C@@H](Cc3ccc(C)cc3C)N2)c1` (racemic) [Compound I-018]: the inhibition at 20 ppm in data set [1], in data set [2], in data set [3], in data set [4] and in data set [5] was at least 70% each time. Also, in data set [6], the chromatographic logP amounted to 4.23.
Turning to `Cc1ccc(C[C@@H]2CON=C(c3c(Oc4cccc(C(F)(F)F)c4)cnc4ccoc34)N2)c(C)c1` (racemic) [Compound I-013], the inhibition at 20 ppm in data set [1], in data set [2], in data set [3], in data set [4] and in data set [5] was at least 70% in each case. Also, in data set [6], the chromatographic logP turned out to be 3.96.
As to `C=Cc1ccc(C[C@@H]2CON=C(c3c(Oc4cccc(C(F)(F)F)c4)nnc4ccccc34)N2)c(Cl)c1` (racemic) [Compound I-009], the inhibition at 20 ppm in data set [1], in data set [2], in data set [3], in data set [4] and in data set [5] was at least 70% each time. In data set [6], this compound showed a chromatographic logP of 4.44.
